Laboratory results reported in patent publication US20150259295A1, “SUBSTITUTED PYRAZOLE COMPOUNDS AS LPAR ANTAGONISTS” (Hoffmann-La Roche Inc., priority 2012, published 2015).

Tests used:
[1] = biological target: human recombinant LPA1 Lysophospholipid receptor (Homo sapiens, UniProt Q92633); assay: Calcium flux assay using FLIPR, LPA1R antagonist activity; format: cell-based; conditions: for IC50: ChemiScreen calcium-optimized stable cell line, FLIPR calcium flux, antagonist mode
Method: (§1) Calcium Flux Assay Using Fluorometric Imaging Plate Reader (FLIPR)
Cell Culture Conditions: The ChemiScreen Calcium-optimized stable cell line containing the human recombinant LPA1 Lysophospholipid receptor was purchased from Chemicon International, Inc./Millipore. The cells were cultured in DMEM-high glucose supplemented with 10% fetal bovine serum, 2 mM glutamine, 100 U/mL penicillin/100 μg/mL streptomycin, 1× non-essential amino acids, 10 mM HEPES and 0.25 mg/mL Geneticin. Cells were harvested with trypsin-EDTA and counted using ViaCount reagent. The cell suspension volume was adjusted to 2.0×10^5 cells/mL with complete growth media. Aliquots of 50 μL were dispensed into 384 well black/clear tissue culture treated plates (BD) and the microplates were placed in a 37° C. incubator overnight. The following day plates were used in the assay.
Dye Loading and Assay: Loading Buffer (FLIPR Calcium-4, Molecular Devices) was prepared by dissolving the contents of one bottle into 100 mL Hank's Balanced Salt Solution containing 20 mM HEPES and 2.5 mM probenecid. Plates were loaded onto Biotek plate washer and growth media was removed and replaced with 20 µL of Hank's Balanced Salt Solution containing 20 mM HEPES and 2.5 mM probenecid, followed by 25 μL of Loading Buffer. The plates were then incubated for 30 minutes at 37° C.
During the incubation, test compounds were prepared by adding 90 μL of HBSS/20 mM HEPES/0.1% BSA buffer to 2 μL of serially diluted compounds. To prepare serial dilutions, 10 mM stocks of compounds were prepared in 100% DMSO. The compound dilution plate was set up as follows: well #1 received 29 μL of stock compound and 31 μL DMSO; wells 2-10 received 40 μL of DMSO; mixed and transferred 20 μL of solution from well #1 into well #2; continued with 1:3 serial dilutions out 10 steps; transferred 2 μL of diluted compound into duplicate wells of 384 well “assay plate” and then added the 90 μL of buffer.
(§2) After incubation, both the cell and “assay” plates were brought to the FLIPR and 20 μL of the diluted compounds were transferred to the cell plates by the FLIPR. Compound addition was monitored by FLIPR to detect any agonist activity of the compounds. Plates were then incubated for 30 minutes at room temperature protected from light. After the incubation, plates were returned to the FLIPR and 20 μL of 4.5× concentrated agonist was added to the cell plates. During the assay, fluorescence readings were taken simultaneously from all 384 wells of the cell plate every 1.5 seconds. Five readings were taken to establish a stable baseline, then 20 μL of sample was rapidly (30 μL/sec) and simultaneously added to each well of the cell plate. The fluorescence was continuously monitored before, during and after sample addition for a total elapsed time of 100 seconds. Responses (increase in peak fluorescence) in each well following agonist addition was determined. The initial fluorescence reading from each well, prior to ligand stimulation, was used as zero baseline value for the data from that well. The responses were expressed as % inhibition of the buffer control.

LPA3R = biological target: T1, LPA3R (Homo sapiens, UniProt Q9UBY5); assay: LPA3R antagonist activity (Table 1, calcium flux FLIPR); format: cell-based
T1 sequence (Q9UBY5 1-353): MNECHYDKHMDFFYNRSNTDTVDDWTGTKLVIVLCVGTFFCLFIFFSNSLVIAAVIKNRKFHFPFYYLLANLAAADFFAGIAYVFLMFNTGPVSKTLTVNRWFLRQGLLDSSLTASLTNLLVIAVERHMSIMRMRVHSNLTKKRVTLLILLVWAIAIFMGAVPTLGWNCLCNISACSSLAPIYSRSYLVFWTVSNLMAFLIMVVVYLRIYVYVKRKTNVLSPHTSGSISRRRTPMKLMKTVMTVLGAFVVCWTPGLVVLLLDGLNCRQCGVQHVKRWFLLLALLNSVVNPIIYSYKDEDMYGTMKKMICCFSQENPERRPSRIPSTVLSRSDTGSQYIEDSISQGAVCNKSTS
Method: as §1, §2

Chain of human recombinant LPA1 Lysophospholipid receptor (Q92633 whole entry): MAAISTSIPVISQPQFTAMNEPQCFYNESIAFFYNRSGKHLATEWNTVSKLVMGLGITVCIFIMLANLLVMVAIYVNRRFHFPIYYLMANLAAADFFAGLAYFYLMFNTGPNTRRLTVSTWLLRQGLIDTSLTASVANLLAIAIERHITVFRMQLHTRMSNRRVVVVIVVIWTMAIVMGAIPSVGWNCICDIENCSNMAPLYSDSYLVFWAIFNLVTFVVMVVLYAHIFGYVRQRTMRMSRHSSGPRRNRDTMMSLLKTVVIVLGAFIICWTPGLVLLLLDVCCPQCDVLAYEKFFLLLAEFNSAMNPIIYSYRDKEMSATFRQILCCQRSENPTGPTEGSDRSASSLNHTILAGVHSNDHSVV

| Structure (SMILES) | IC50 [1] [µM] | IC50 (LPA3R) [µM] | inhibition at 30 µM [1] [%] |
| --- | --- | --- | --- |
| Cn1ncc(-c2ccc(-c3ccc(C4(C(=O)O)CC4)cc3)cc2)c1NC(=O)OC1CCC1 [Example 19, 1-{4′-[5-(cyclobutoxycarbonylamino)-1-methyl-1H-pyrazol-4-yl]-biphenyl-4-yl}-cyclopropanecarboxylic acid] | 0.176 | > 30 | – |
| CC[C@@H](C)OC(=O)Nc1c(-c2ccc(-c3ccc(C4(C(=O)O)CC4)cc3)cc2)cnn1C [Example 14, (R)-1-{4′-[5-(sec-Butoxycarbonylamino)-1-methyl-1H-pyrazol-4-yl]-biphenyl-4-yl}-cyclopropanecarboxylic acid] | 0.038 | > 30 | – |
| C[C@@H](OC(=O)Nc1c(-c2ccc(-c3ccccc3)cc2)cnn1C)c1ccccc1 [Example 7, (4-Biphenyl-4-yl-2-methyl-2H-pyrazol-3-yl)-carbamic acid (R)-1-phenyl-ethyl ester] | > 30 | > 30 | – |
| C[C@@H](OC(=O)Nc1c(-c2ccccc2)cnn1C)c1ccccc1 [Example 1, 2-Methyl-4-phenyl-2H-pyrazol-3-yl-carbamic acid (R)-1-phenyl-ethyl ester] | 17.5 | > 30 | 64.8 |
| C[C@@H](OC(=O)Nc1c(-c2ccc(CC(=O)O)cc2)cnn1C)c1ccccc1 [Example 10, {4-[1-Methyl-5-((R)-1-phenyl-ethoxycarbonylamino)-1H-pyrazol-4-yl]-phenyl}-acetic acid] | > 30 | > 30 | – |
| C[C@@H](OC(=O)Nc1c(-c2ccc(C3(C(=O)O)CC3)cc2)cnn1C)c1ccccc1 [Example 9, 1-{4-[1-Methyl-5-((R)-1-phenyl-ethoxycarbonylamino)-1H-pyrazol-4-yl]-phenyl}-cyclopropanecarboxylic acid] | > 30 | > 30 | – |
| CC(OC(=O)Nc1c(-c2ccccc2)cnn1C)c1ccccc1Cl (stereo not shown) [Example 3, (2-Methyl-4-phenyl-2H-pyrazol-3-yl)-carbamic acid 1-(2-chloro-phenyl)-ethyl ester] | 3.59 | – | – |
| CC(OC(=O)Nc1c(-c2ccc(-c3ccc(C4(C(=O)O)CC4)cc3)cc2)cnn1C)c1ccccc1Cl (stereo not shown) [Example 6, 1-(4′-{5-[1-(2-Chloro-phenyl)-ethoxycarbonylamino]-1-methyl-1H-pyrazol-4-yl}-biphenyl-4-yl)-cyclopropanecarboxylic acid] | 0.112 | 2.47 | – |
| CC(OC(=O)Nc1c(-c2ccc(F)cc2)cnn1C)c1ccccc1Cl (stereo not shown) [Example 11, [4-(4-Fluoro-phenyl)-2-methyl-2H-pyrazol-3-yl]-carbamic acid 1-(2-chloro-phenyl)-ethyl ester] | 3.93 | – | – |
| CCOC(=O)C1(c2ccc(-c3ccc(-c4cnn(C)c4NC(=O)O[C@H](C)c4ccccc4)cc3)cc2)CC1 [Example 4, 1-{4′-[1-Methyl-5-((R)-1-phenyl-ethoxycarbonylamino)-1H-pyrazol-4-yl]-biphenyl-4-yl}-cyclopropanecarboxylic acid ethyl ester] | 1.59 | > 30 | 65.9 |
| C[C@@H](OC(=O)Nc1c(-c2ccc(-c3ccc(C4(C(=O)O)CC4)cc3)cc2)cnn1C)c1ccccc1 [Example 5, 1-{4′-[1-Methyl-5-((R)-1-phenyl-ethoxycarbonylamino)-1H-pyrazol-4-yl]-biphenyl-4-yl}-cyclopropanecarboxylic acid] | 0.02 | 8.35 | – |
| C[C@@H](OC(=O)Nc1c(-c2ccc(-c3ccc(CC(=O)O)cc3)cc2)cnn1C)c1ccccc1 [Example 2, {4′-[1-Methyl-5-((R)-1-phenyl-ethoxycarbonylamino)-1H-pyrazol-4-yl]-biphenyl-4-yl}-acetic acid] | 0.035 | > 30 | – |

More lines, now with the values ahead:

| IC50 [1] [µM] | IC50 (LPA3R) [µM] | inhibition at 30 µM [1] [%] | Structure (SMILES) |
| --- | --- | --- | --- |
| 0.024 | 5.8 | – | C[C@@H](OC(=O)Nc1c(-c2ccc(-c3ccc(C4(C(=O)O)CC4)cc3)cc2)cnn1C)c1ccccc1F [Example 16, (R)-1-{4′-[5-((1-(2-Fluorophenyl)ethoxy)carbonylamino)-1-methyl-1H-pyrazol-4-yl]-biphenyl-4-yl}-cyclopropanecarboxylic acid] |
| > 30 | > 30 | – | Cn1ncc(-c2ccc(-c3ccc(C4(C(=O)O)CC4)cc3)cc2)c1NC(=O)OC1COC1 [Example 20, 1-{4′-[1-Methyl-5-((oxetan-3-yloxy)carbonylamino)-1H-pyrazol-4-yl]-biphenyl-4-yl}-cyclopropanecarboxylic acid] |
| 0.88 | > 30 | 85.5 | C[C@@H](CC(=O)Nc1c(-c2ccc(-c3ccc(C4(C(=O)O)CC4)cc3)cc2)cnn1C)c1ccccc1 [Example 25, 1-{4′-[1-Methyl-5-((S)-3-phenyl-butyrylamino)-1H-pyrazol-4-yl]-biphenyl-4-yl}-cyclopropanecarboxylic acid] |
| 0.644 | > 30 | 97.2 | C[C@@H](OC(=O)Nc1c(-c2ccccc2F)cnn1C)c1ccccc1Cl [Example 21, [4-(2-Fluoro-phenyl)-2-methyl-2H-pyrazol-3-yl]-carbamic acid (R)-1-(2-chloro-phenyl)-ethyl ester] |
| 0.042 | 0.478 | – | C[C@@H](OC(=O)Nc1c(-c2ccc(-c3ccc(C4(C(=O)O)CC4)cc3)cc2)cnn1C)c1cccc(C(F)(F)F)c1 [Example 17, (R)-1-{4′-[1-Methyl-5-((1-(3-(trifluoromethyl)phenyl)ethoxy)carbonylamino)-1H-pyrazol-4-yl]-biphenyl-4-yl}-cyclopropanecarboxylic acid] |
| 0.057 | 8.26 | – | CC(OC(=O)Nc1c(-c2ccc(-c3ccc(C4(C(=O)O)CC4)cc3)cc2)cnn1C)c1ccc(F)cc1 (stereo not shown) [Example 18, 1-{4′-[5-((1-(4-fluorophenyl)ethoxy)carbonylamino)-1-methyl-1H-pyrazol-4-yl]-biphenyl-4-yl}-cyclopropanecarboxylic acid] |
| 24.6 | > 30 | 50.5 | CC(OC(=O)Nc1c(-c2ccccc2F)cnn1C)c1cccc(C(F)(F)F)c1 (racemic) [Example 12, [4-(2-Fluoro-phenyl)-2-methyl-2H-pyrazol-3-yl]-carbamic acid 1-(3-trifluoromethyl-phenyl)-ethyl ester] |
| > 30 | > 30 | – | C[C@H](OC(=O)Nc1c(-c2ccccc2F)cnn1C)c1ccccc1Cl [Example 22, [4-(2-Fluoro-phenyl)-2-methyl-2H-pyrazol-3-yl]-carbamic acid (S)-1-(2-chloro-phenyl)-ethyl ester] |
| > 30 | > 30 | – | C[C@@H](OC(=O)Nc1c(-c2ccccc2F)cnn1C)c1cccc(C(F)(F)F)c1 [Example 23, [4-(2-Fluoro-phenyl)-2-methyl-2H-pyrazol-3-yl]-carbamic acid (R)-1-(3-trifluoromethyl-phenyl)-ethyl ester] |
| 1.4 | > 30 | – | CC(OC(=O)Nc1c(-c2ccccc2F)cnn1C)c1ccccc1Cl (racemic) [Example 13, [4-(2-Fluoro-phenyl)-2-methyl-2H-pyrazol-3-yl]-carbamic acid 1-(2-chloro-phenyl)-ethyl ester] |
| 0.107 | > 30 | – | CC(C)[C@@H](C)OC(=O)Nc1c(-c2ccc(-c3ccc(C4(C(=O)O)CC4)cc3)cc2)cnn1C [Example 15, (R)-1-{4′-[5-(1,2-Dimethyl-propoxycarbonylamino)-1-methyl-1H-pyrazol-4-yl]-biphenyl-4-yl}-cyclopropanecarboxylic acid] |
